The subject of assay [1] is rabbit platelets. The assay can be described thus: PAF-induced platelet secretion ([^3 H]serotonin). Type of assay: cell-based. The following applies: Oryctolagus cuniculus, washed [^3 H]serotonin-labeled rabbit platelets, 60 sec after PAF, IC50 by inspection of dose-response curves. The procedure:
(§1) PAF-induced platelet aggregation and secretion: Washed, [^3 H]serotonin-labeled rabbit platelets were prepared as previously described in COX, C. P., J. LINDEN and S. I. SAID: VIP elevates platelet cyclic AMP (cAMP) levels and inhibits in vitro platelet activation induced by platelet-activating factor (PAF). Peptides 5:25-28, 1984, and maintained in an atmosphere of 5% CO2 at 37° C. until used in the bioassay. […] Aggregation was continuously monitored on a strip-chart recorder and recorded as the height of the tracing at 60 sec after the addition of PAF. Secretion of [^3 H]serotonin was measured in a sample of the platelet suspension removed at 60 sec after the addition of PAF. The percent inhibition of aggregation and secretion was calculated by comparing antagonist-treated platelets with the appropriate vehicle-treated control platelets. Each combination of antagonist and PAF was repeated 12-15 times, using several different platelet preparations. IC50 values were determined by inspection of the dose-response curves.

The test system of assay [2] is rabbit platelets. Nature of the assay: PAF-induced platelet aggregation. Type of assay: cell-based. The following applies: Oryctolagus cuniculus, washed rabbit platelets, 60 sec after PAF, IC50 by inspection of dose-response curves. How it is done:
as §1

Assay [3] addresses PAF receptor (Human Platelet Membrane Receptors) (Homo sapiens, UniProt P25105).
Method: Inhibition of ^3 H-PAF Binding to Human Platelet Membrane Receptors
Receptor Preparation: Ten units of in-dated human packed platelets, each containing 45-65 ml platelet rich-plasma, were purchased from a commercial blood bank. Disposable plasticware was used throughout for receptor preparation. The units were pooled and a 1 ml aliquot was removed for determination of platelet concentration, using a Coulter Counter. The remaining platelet rich plasma was dispensed into 50 ml conical tubes and centrifuged at room temperature for 15 minutes at 3000 RPM (2300×g).Plasma was decanted and the platelets were resuspended in 35 ml of buffer 10 mM Trizma 7.0, 2 mM EDTA (dipotassium salt), and 150 mM KCl) and transferred to fresh tubes, which were centrifuged again as above. The platelets were washed 3 times, avoiding contaminating erythrocytes at the bottom of the pellets. Pellets were consolidated at each step, and by the last wash with EDTA/KCl buffer, most of the erythrocytes were in 1 tube. The pellets were resuspended in buffer containing 10 mM Trizma 7.0 with 10 mM CaCl2. Following centrifugation, the buffer was decanted and the pellets were resuspended in the CaCl2 buffer, avoiding erythrocyte contamination by recovering less than 100% of the platelet pellets. The resuspended platelets were dispensed in 8-10 ml aliquots into Corex tubes and disrupted by three cycles of freezing (dry ice/ethanol) and thawing (24° C.). The tubes were centrifuged at 40,000×g for 20 minutes at 4° C. Supernatants were decanted and each pellet was resuspended in 5-7 ml 10 mM Trizma 7.0. All resuspended pellets were pooled and aliquots of about 1200 ml were dispensed into 1.5 ml microfuge tubes and frozen at -70° C. Protein content was determined by a fluorescamine protein assay.
Assay Methods: Receptor Characterization--Each receptor preparation was evaluated to determine the number of receptor populations, the number of PAF receptor equivalents/mg protein and the dissociation constant (KD) for PAF binding. This required 2-3 experiments in which the protein concentration was held constant and the ^3 H-PAF ligand concentration was varied from approximately 0.10-2.5 nM and the data was analyzed by Scatchard methodology. Total incubation volume was 250 ml for these procedures and incubations were conducted at 24° C. for 30 minutes. For further experimentation, total incubation volumes are 500 ml. Protein and ligand concentrations were adjusted to give 0.075 nM receptor equivalents in the presence of 0.75 nM ^3 H-PAF. Each receptor preparation was then used to determine the dose--response displacement relationship of unlabeled PAF and the PAF antagonist, triazolam.
Assay Methods: Routine Assay of Compounds--The compounds were weighed precisely and solubilized in quantities of DMSO such that a 5 ml aliquot in the incubate would deliver the desired compound concentration. Compounds tested for the first time in this assay were evaluated at a concentration of 50 mM in the incubation medium. […] Triazolam was always included in each screening assay as a compound inhibition control. […] Nonspecific binding control solution was made by drying to completion about 26.2 ml unlabeled PAF under a stream of argon. PAF was resolubilized in 1000 ml DMSO. When delivered in a 5 ml aliquot, the final concentration of 1 mM PAF in the incubate exceeded by 1000-fold the concentration of ^3 H-PAF.
All buffers containing proteins were made at room temperature on the day of assay. Assay buffer was prepared by adding 125 mg human albumin to 25 ml of stock buffer (10 mM Trizma 7.4 with 20 mM CaCl2). Rinse buffer was made by adding 20 grams bovine serum albumin to i000 ml stock buffer. About 80 ml of rinse buffer was decanted into a small pyrex dish and used to soak 65 Whatman GF/C 2.5 cm glass filters. The remaining rinse buffer was poured into a repipet and placed into an ice bath along with the filters.

Chain of PAF receptor (Human Platelet Membrane Receptors) (P25105 whole entry): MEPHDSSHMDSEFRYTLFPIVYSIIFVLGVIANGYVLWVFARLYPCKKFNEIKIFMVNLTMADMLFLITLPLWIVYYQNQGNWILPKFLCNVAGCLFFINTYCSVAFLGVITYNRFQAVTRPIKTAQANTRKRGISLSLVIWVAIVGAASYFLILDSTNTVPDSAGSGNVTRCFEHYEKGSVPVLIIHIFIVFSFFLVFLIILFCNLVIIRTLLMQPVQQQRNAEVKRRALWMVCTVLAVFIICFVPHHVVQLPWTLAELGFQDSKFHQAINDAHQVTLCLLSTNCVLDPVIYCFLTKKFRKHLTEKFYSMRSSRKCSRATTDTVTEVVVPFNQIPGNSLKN

On to `O=C(c1ccc(Cn2ccc3ncnc-3c2)cc1)N(c1ccccc1)C1CCCC1` [5-[4-(N-phenyl-N-cyclopentylcarboxamido)benzyl]imidazo[4,5-c]pyridine], for which the IC50 (as a rule, the concentration at which inhibition is half-maximal) is 100 to 1000 nM in assay [1] (1 min), 1000 nM in assay [2] and 2350 nM in assay [3].

Consider `COc1cc(C(=O)N(C(C)C)C2CCCCC2)ccc1Cn1ccc2ncnc-2c1` [5-[4{-(N-isopropyl,N-cyclohexyl)carboxamido}-2-methoxybenzyl]imidazo[4,5-c]pyridine], for which the IC50 was 10 nM in assay [1], 10 to 100 nM in assay [2] (1 min) and 66.5 nM in assay [3].

Take `CC(C)N(C(=O)c1ccc(Cn2ccc3ncnc-3c2)cc1)C1CCCCC1` [5-[4{-(N-isopropylyl,N-cyclohexyl)carboxamido}benzyl]imidazo[4.5-c]pyridine]: the results for the IC50 in assay [1], in assay [2] (1 min) and in assay [3] were 10 nM, 10 to 100 nM and 170 nM, respectively.

In the case of `O=C(c1ccc(Cn2ccc3ncnc-3c2)cc1)N(C1CCCCC1)C1CCCCC1` [5-[(4-(N,N-dicyclohexylcarboxamido)benzyl]imidazo[4,5-c]pyridine], the figures for the IC50 in assay [1], in assay [2] (1 min) and in assay [3] were 10 nM, 100 to 1000 nM and 1060 nM, respectively.

The values above are taken from patent US5227384A, “5-substituted [4,5-c] imidazopyridines and pharmaceutical use thereof” (G. D. Searle & Co., priority 1991, dated 1993).
